Reference: patent US20050069587A1, “Novel drug compositions and dosage forms of topiramate” (priority 2003, published 2005)
≈ marks a conversion by molar mass, not a printed value. Like-named read-outs stand apart in the source and are kept apart here.

Tests used:
[1] = solubility of topiramate in de-ionized water and aqueous surfactant solutions; assay type: physicochemical; details: for solubility: water, thermodynamic from solid
Description: As defined herein, the solubility of a pharmaceutical agent is determined by adding the pharmaceutical agent to stirred or agitated de-ionized water maintained in a constant temperature bath at a temperature of 37° C. until no more pharmaceutical agent dissolves. The resulting solution saturated with the pharmaceutical agent is then filtered, typically under pressure through a 0.8-micron Millipore filter, and the concentration of the pharmaceutical agent in the solution is measured by any appropriate analytical method including gravimetric, ultraviolet spectrophometry, chromatography, and the like. The solubility of the pharmaceutical agent is measured at equilibrium.
A drug composition of the present invention was prepared as follows. Aqueous solutions of five surfactants were prepared. The selected surfactants were four grades of ethylene oxide/propylene oxide/ethylene oxide (LUTROL grades F127, F87, F 108, and F68) and PEG-40 stearate (MYRJ 52). Solutions were made at concentrations of 1, 5, and 15 weight percent. The aqueous surfactant blends solutions were chilled as necessary to promote complete dissolution of the surfactant prior to drug solubility studies.
The aqueous surfactant solutions were equilibrated to constant temperature in a 37° C. water bath. Then, neat topiramate drug was added slowly with stirring in approximately 10 mg increments to the surfactant solutions until no more drug dissolved. A control sample of drug dissolved in de-ionized water without surfactant was included for comparison purposes. The resulting saturated solutions of drug were filtered through 0.8 micron filters and analyzed for drug concentration by refractive index chromatography. The resulting solubility values were plotted as a function of both surfactant concentration and the hydrophilic-lipophilic balance value of each surfactant. FIG. 6 was constructed from the solubility values obtained and HLB data for each surfactant utilized.

[2] = room temperature; cited from earlier work
[3] = cited from earlier work

drug solubility in the presence of each surfactant compared to the control ([1]; LUTROL F127, F87, F108, F68, MYRJ 52 at 1, 5, 15 weight percent, 37° C.): higher
solubility ([1]; de-ionized water without surfactant, 37° C., read-out: solubility in de-ionized water without surfactant (control)): 13 mg/mL (≈ 38.3 mM)
solubility ([1]; de-ionized water, 37 °C, read-out: solubility in de-ionized water): ~12 mg/mL (≈ 35.4 mM)
solubility ([1]; neat drug, stated range, read-out: solubility of neat topiramate): 9.8 to 13 mg/mL (≈ 28.9 to 38.3 mM)
SMILES: CC1(C)O[C@@H]2[C@@H](CO[C@@]3(COS(N)(=O)=O)OC(C)(C)O[C@@H]23)O1 [topiramate, 2,3:4,5-bis-O-(1-methylethylidene)-β-D-fructopyranose sulfamate]
solubility of topiramate in water [2]: about 9.8 mg/ml
mean elimination half life ([3]; in vivo): about 21 hours
time to peak plasma drug concentrations ([3]; oral administration of an immediate release dosage form): approximately 2 hours
